# In patent publication US20240246942A1, “KINASE INHIBITORS FOR THE TREATMENT OF NEURODEGENERATIVE DISEASES” (priority 2020, published 2024):
# Experiments:
# Experiment in all cases: biochemical
# [1] = biological target: T1, panel of 374 wild-type kinases (Homo sapiens, UniProt O75385); details: read-out: % Enzyme Activity (relative to DMSO controls), kinase ULK1
# T1 construct: purchased Reaction Biology Corporation
# T1 sequence (O75385 1-1050): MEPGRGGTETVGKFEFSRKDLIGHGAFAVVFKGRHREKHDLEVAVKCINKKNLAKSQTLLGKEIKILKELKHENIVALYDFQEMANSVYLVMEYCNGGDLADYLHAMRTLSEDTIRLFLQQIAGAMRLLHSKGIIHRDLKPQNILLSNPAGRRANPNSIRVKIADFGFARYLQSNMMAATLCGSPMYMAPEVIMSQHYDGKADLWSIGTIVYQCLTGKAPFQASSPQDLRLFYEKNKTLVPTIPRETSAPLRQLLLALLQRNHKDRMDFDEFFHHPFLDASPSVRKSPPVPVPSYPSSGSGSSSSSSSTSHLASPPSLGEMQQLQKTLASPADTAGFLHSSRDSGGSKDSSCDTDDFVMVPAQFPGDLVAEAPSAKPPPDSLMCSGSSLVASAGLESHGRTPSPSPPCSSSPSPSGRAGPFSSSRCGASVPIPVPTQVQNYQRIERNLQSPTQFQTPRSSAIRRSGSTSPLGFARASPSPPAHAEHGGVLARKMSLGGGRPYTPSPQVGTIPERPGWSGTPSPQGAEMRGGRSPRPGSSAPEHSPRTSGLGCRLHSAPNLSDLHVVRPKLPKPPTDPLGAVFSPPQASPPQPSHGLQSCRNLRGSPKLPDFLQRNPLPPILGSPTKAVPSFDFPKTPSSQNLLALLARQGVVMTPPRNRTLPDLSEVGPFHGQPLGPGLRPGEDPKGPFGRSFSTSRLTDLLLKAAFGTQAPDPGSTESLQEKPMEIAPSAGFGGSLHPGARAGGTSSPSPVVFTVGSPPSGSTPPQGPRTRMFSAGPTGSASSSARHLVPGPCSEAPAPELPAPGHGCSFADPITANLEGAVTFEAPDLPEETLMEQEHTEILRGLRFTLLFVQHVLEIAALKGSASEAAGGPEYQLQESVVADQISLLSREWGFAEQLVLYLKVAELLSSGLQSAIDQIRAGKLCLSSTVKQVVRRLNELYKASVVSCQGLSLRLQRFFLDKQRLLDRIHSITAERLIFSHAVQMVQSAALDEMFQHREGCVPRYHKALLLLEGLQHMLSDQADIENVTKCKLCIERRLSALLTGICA
# [2] = biological target: T2, panel of 374 wild-type kinases (Homo sapiens, UniProt P29376); details: kinase TYK1/LTK, read-out: % Enzyme Activity (relative to DMSO controls)
# T2 construct: purchased Reaction Biology Corporation
# [3] = biological target: T3, panel of 374 wild-type kinases (Homo sapiens, UniProt Q6XUX3); details: read-out: % Enzyme Activity (relative to DMSO controls), kinase RIPK5
# T3 construct: purchased Reaction Biology Corporation
# T3 sequence (Q6XUX3 1-929): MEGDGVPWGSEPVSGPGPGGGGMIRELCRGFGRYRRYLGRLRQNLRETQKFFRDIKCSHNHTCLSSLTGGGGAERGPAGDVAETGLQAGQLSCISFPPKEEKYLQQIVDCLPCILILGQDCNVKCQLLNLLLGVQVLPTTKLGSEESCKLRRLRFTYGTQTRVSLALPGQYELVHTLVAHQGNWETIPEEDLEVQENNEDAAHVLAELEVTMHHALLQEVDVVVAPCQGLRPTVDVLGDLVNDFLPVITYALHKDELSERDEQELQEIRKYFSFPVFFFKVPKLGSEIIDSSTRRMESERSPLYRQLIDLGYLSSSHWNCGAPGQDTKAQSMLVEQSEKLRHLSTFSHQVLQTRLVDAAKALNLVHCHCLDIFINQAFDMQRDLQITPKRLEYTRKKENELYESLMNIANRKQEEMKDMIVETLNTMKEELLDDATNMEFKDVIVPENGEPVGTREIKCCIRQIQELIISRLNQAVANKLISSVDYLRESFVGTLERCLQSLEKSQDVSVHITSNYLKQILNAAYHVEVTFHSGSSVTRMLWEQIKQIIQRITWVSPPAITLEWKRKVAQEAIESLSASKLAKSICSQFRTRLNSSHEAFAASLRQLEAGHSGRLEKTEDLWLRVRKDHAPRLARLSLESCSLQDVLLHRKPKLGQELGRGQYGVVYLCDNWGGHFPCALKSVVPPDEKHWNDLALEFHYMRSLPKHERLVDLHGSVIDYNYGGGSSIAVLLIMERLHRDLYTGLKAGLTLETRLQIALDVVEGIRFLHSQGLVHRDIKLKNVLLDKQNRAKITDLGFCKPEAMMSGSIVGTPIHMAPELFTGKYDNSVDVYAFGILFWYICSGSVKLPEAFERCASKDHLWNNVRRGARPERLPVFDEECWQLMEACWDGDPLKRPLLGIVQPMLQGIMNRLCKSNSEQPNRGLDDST
# [4] = biological target: T4, panel of 374 wild-type kinases (Homo sapiens, UniProt Q8IW41); details: read-out: % Enzyme Activity (relative to DMSO controls), MAPKAPK5/PRAK
# T4 construct: purchased Reaction Biology Corporation
# T4 sequence (Q8IW41 1-473): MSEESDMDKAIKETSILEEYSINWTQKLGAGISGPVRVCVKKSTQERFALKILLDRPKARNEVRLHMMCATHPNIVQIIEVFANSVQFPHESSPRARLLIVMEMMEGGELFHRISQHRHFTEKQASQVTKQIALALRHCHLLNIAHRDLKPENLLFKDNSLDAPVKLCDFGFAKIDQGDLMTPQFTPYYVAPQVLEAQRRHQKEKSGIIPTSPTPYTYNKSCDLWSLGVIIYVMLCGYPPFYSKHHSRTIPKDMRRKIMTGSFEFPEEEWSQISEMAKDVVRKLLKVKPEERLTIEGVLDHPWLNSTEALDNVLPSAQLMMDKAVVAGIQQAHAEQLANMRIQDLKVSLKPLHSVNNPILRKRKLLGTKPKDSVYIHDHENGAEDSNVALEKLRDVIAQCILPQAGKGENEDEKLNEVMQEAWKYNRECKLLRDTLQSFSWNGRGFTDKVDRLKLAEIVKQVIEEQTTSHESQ
# T2 sequence (P29376 17-864): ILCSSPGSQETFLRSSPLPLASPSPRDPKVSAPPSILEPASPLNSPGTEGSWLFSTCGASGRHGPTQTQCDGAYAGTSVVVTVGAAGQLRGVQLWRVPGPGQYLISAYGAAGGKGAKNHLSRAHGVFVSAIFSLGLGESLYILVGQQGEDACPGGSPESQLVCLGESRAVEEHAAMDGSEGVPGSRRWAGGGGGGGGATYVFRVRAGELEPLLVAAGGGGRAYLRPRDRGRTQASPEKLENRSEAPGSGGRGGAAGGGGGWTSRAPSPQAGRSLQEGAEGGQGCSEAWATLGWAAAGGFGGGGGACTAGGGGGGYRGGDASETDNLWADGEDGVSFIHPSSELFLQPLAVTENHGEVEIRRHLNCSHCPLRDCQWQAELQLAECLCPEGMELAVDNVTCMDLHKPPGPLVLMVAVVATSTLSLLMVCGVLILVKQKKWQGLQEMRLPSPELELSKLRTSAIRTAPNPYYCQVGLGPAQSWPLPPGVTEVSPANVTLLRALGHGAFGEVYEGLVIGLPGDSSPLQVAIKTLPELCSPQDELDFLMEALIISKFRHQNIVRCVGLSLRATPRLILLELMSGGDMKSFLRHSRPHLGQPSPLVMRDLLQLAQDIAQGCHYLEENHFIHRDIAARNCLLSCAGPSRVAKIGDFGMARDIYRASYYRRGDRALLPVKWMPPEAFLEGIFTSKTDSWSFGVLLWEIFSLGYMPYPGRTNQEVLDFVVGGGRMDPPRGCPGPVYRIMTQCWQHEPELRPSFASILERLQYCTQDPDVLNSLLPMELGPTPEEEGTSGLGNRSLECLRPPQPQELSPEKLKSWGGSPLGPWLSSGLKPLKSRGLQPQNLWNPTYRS
Compound,remaining activity at 5 µM [1] [%],remaining activity at 5 µM [2] [%],remaining activity at 5 µM [3] [%],remaining activity at 5 µM [4] [%],remaining activity at 10 µM ([1]; 10 uM) [%],remaining activity at 10 µM ([2]; 10 uM) [%],remaining activity at 10 µM ([3]; 10 uM) [%],remaining activity at 10 µM ([4]; 10 uM) [%]
"O=C(Nc1cnn(-c2csc(C(=O)NC3COC3)c2)c1)Nc1ccccc1Cl [Compound 17, 4-(4-(3-(2-chlorophenyl)ureido)-1H-pyrazol-1-yl)-N-(oxetan-3-yl)thiophene-2-carboxamide]",134,99.2,102,92.8,,,,
"O=C(Nc1cnn(-c2csc(C(=O)NC3COC3)c2)c1)Nc1c(F)cccc1Cl [Compound 25, 4-(4-(3-(2-chloro-6-fluorophenyl)ureido)-1H-pyrazol-1-yl)-N-(oxetan-3-yl)thiophene-2-carboxamide]",93.9,92.2,95.5,99.7,,,,
"Cc1sc(C(=O)NC2COC2)cc1-n1cc(NC(=O)Nc2c(F)cccc2Cl)cn1 [Compound 27, 4-(4-(3-(2-chloro-6-fluorophenyl)ureido)-1H-pyrazol-1-yl)-5-methyl-N-(oxetan-3-yl)thiophene-2-carboxamide]",,,,,77.3,114,96.6,96.5
